Test system: P. falciparum 3D7 growth, pLDH absorbance
Assay: blood-stage malaria parasite growth potency – strain 3D7, dose response (AID 2305)

| Compound | IC50 [nM] |
| --- | --- |
| Cc1c(Cl)ccc2sc(N3CCN(C(=O)c4ccc([N+](=O)[O-])o4)CC3)nc12 | 750 |
| Cc1[nH]c(C)c(-c2ccc(CCc3ccc(F)cc3F)cc2)c(=O)c1Br | 10 |
| N#Cc1cccc(C(=O)NC2CCN(CCCCCNC(=O)/C=C/c3ccc(Cl)c(Cl)c3)CC2)c1 | 880 |
| CC(CN=C(N)c1cccc(C(N)=NCC(C)Oc2cccc(C3CCCCC3)c2)n1)Oc1cccc(C2CCCCC2)c1 (configuration not stated) | 920 |
| Cc1ccccc1C1CCN(C2CCC(NC(=O)c3ccc4c(c3)-c3nocc3C(C)O4)CC2)CC1 (configuration not stated) | 1270 |
| Cc1cc(Oc2cc(NC(=O)c3sc4ncn(Cc5ccccc5F)c(=O)c4c3C)cc([N+](=O)[O-])c2)ccc1Cl | 1150 |
| Cc1cccc(C(O)CNc2ccnc(Nc3cccc(-c4csc(C)n4)c3)n2)c1 (configuration not stated) | 680 |
| Cc1ccnc(NC(=O)c2cc(-c3cccc([N+](=O)[O-])c3)nc3onc(C)c23)c1 | 890 |
| OCCCCCCNc1nc(NCc2ccccc2-c2ccc(C(F)(F)F)cc2)nc(N2CCNCC2)n1 | 1440 |
| COc1ccc(-c2ccc(CNCc3ccccc3)cc2)cc1S(=O)(=O)NCCN1CCCC1 | 730 |
| FC(F)(F)c1ccc(CNC2CCN(CC3CCCCC3)CC2)cc1 | 930 |
| Cn1ccc(-c2cccc(Nc3ccnc4cc(-c5nccs5)ccc34)c2)n1 | 410 |
| CC(C)(CNCc1ccc(OC(F)(F)F)cc1)c1nc(-c2ccc(Cl)c(O)c2)c(-c2ccncc2)[nH]1 | 550 |
| COc1ccc(Nc2ncc3c(-c4cccc(NC(=O)Cc5cccc(F)c5)c4)c[nH]c3n2)cc1OC | 570 |
| O=C(NCCc1ccc(Cl)c(Cl)c1)C1CCCN(C(=O)c2ccc(O)c(-c3ccc(Cl)c(Cl)c3)c2)C1 (configuration not stated) | 780 |
| CCCCCCc1cc2cc(-c3csc(C=Cc4ccccc4)n3)c(=O)oc2cc1O | 970 |
| CCOC(=O)NCC(=O)Nc1cccc(-c2cccc(-c3nc4ccc(C(F)(F)F)cc4[nH]3)c2)c1 | 630 |
| CCn1c(=O)c(C(=O)Nc2cc(Cl)c(OC)cc2OC)nc2ccccc21 | 240 |
| O=C(Nc1cc(Cl)cc(Cl)c1)c1cc(Cl)c(=O)n(Cc2ccc(Cl)cc2)c1 | 860 |
| CN1CCC(N2CCN(Cc3ccc(-c4ccc(-c5nc6ccccc6[nH]5)s4)cc3)CC2)CC1 | 140 |
| CCCN(c1ccc(C(F)(F)F)cc1[N+](=O)[O-])S(=O)(=O)C(c1ccccc1)c1ccc(C(F)(F)F)cc1[N+](=O)[O-] (configuration not stated) | 1220 |
| c1cc(CN2CCc3ccccc3CC2)cc(-c2c[nH]c3nc(NC4CCCC4)ncc23)c1 | 800 |
| O=C(Oc1ccc(C2CNCCc3c2cc(OC(=O)c2ccc(O)cc2)c(OC(=O)c2ccc(O)cc2)c3Cl)cc1)c1ccc(O)cc1 (configuration not stated) | 980 |

| Compound | IC50 [nM] |
| --- | --- |
| CN1CCc2cc(NC(=O)c3cc4ccccc4s3)cc(-c3ccccc3)c2CC1 | 890 |
| CN(C)CCOc1cc(NC(=O)Nc2cccc([N+](=O)[O-])c2)ccc1I | 740 |
| S=c1nc(-c2ccccc2)n2ccsc2n1 | 180 |
| C=C[C@H]1CN2CC[C@H]1C[C@@H]2[C@@H](O)c1ccnc2ccccc12 | 770 |
| N#Cc1ccc(N(CCOC(=O)c2ccccc2)Cc2ccccc2C(F)(F)F)cc1C(F)(F)F | 920 |
| Oc1ccc(Cl)cc1CN1CCC(CCOC(c2ccccc2)c2ccccc2)CC1 | 650 |
| CCCC(C)Nc1nc(C)cc(N[C@@H](CC(C)C)C(=O)NC2CCCC2)n1 (some centres not stated) | 1080 |
| Cc1cc(C)n(-c2nc(Nc3cccc(C(F)(F)F)c3)nc(-n3nc(C)cc3C)n2)n1 | 360 |
| COc1ccccc1CNC(=O)C(=O)Nc1c(-c2ccccc2)[nH]c2ccccc12 | 740 |
| Cc1ccc(NC(C)C(=O)Nc2ccccc2)cc1S(=O)(=O)N1CCCCCC1 (configuration not stated) | 60 |
| O=C(NC1CC1)c1ccc(N2CCN(Cc3ccc(Cl)cc3)CC2)nc1 | 1340 |
| CN(C)Cc1ccc(-c2cccc(Nc3nccc(NCC(O)c4ccccc4)n3)c2)cc1 (configuration not stated) | 370 |
| Nc1nc(N)c2cc(NS(=O)(=O)c3ccc(-c4ccccc4)cc3)ccc2n1 | 700 |
| COc1ccc2nc3cc(Cl)ccc3c(NCCCCN3CCNCC3)c2c1 | 180 |
| Cc1ccc(Cn2ncc(N3C[C@@H](C)N[C@@H](C)C3)c(Cl)c2=O)cc1NC(=O)Nc1ccc(-c2ccccc2)cc1 | 740 |
| CCOC(=O)CNC(=O)N(CCN(Cc1ccccc1)C(=O)NCC(=O)OCC)Cc1ccccc1 | 770 |
| O=C(NC1CC1)c1ccc(N2CCCC(COc3ccc4c(c3)CCCC4)C2)nc1 (configuration not stated) | 1080 |
| O=C(/C=C/c1ccc(Cl)c(Cl)c1)NCC1CCC(CN2CCC(c3c[nH]c4ccccc34)CC2)CC1 (configuration not stated) | 360 |
| CN(CCCNC(=S)NC12CC3CC(CC(C3)C1)C2)CCCNc1ccnc2cc(Cl)ccc12 | 120 |
| CO/C(=C\C=C\c1cc2cc(Cl)c(Cl)cc2[nH]1)C(=O)NCCCNCCN(C)c1ccccc1 | 780 |
| CC(C)CNCc1cccc(-c2cccc(CNC3CCN(Cc4ccccc4)CC3)c2)c1 | 180 |
| CC(CN(C)C)C(=O)Nc1ccc(-c2ccc(-c3nc4ccccc4[nH]3)cc2)cc1 (configuration not stated) | 740 |
| O=C(c1cccc(-c2noc(C(F)(F)F)n2)c1)N1CCN(C(=O)c2ccc3cc[nH]c3c2)CC1 | 110 |

| Compound | IC50 [nM] |
| --- | --- |
| CC[C@@H]([C@@H](CC(C)C)C(=O)N[C@@H](CCCCNC(=O)OCc1ccccc1)C(=O)Nc1ccccn1)N(O)C=O | 110 |
| O=C1C(c2ccccc2)=C(Nc2ccc([N+](=O)[O-])cc2)c2ccccc21 | 870 |
| COc1ccc(-c2c(-c3ccc(OCc4ccccc4)cc3O)n[nH]c2C(F)(F)F)cc1 | 1170 |
| c1ccc2c(c1)CN(CC1CCOCC1)CC1(CCN(Cc3c[nH]c4cnccc34)CC1)O2 | 1550 |
| O=C(/C=C/c1ccc(Cl)cc1)NCCCCCN1CCC(C(=O)Nc2ccc(Cl)c(Cl)c2)CC1 | 770 |
| CCc1sc(N2CCN(C)CC2)nc1C(=O)NCCc1ccc(Cl)c(Cl)c1 | 1180 |
| COc1cc2nc(-c3ccccc3)nc(N3CCN(CC(=O)N4CCCC4)CC3)c2cc1OC | 1130 |
| CCCN(CC)CCOC(=O)c1ccccc1 | 740 |
| CCNc1cc(C(=O)N[C@@H](Cc2ccccc2)[C@H](O)CNCCC(C)(C)C)c(F)c(N2CCCCS2(=O)=O)c1 | 800 |
| O=[N+]([O-])c1ccc(Oc2c(Cl)cc(S(=O)(=O)NC3CCC(CN4CCC(c5c[nH]c6ccccc56)CC4)CC3)cc2Cl)c(Cl)c1 (configuration not stated) | 760 |
| CCN(CC)CCCC(C)Nc1cc(C=Cc2ccccc2Cl)nc2cc(Cl)ccc12 (configuration not stated) | 800 |
| COc1ccc(S(=O)(=O)NC2CCN(c3cc(C)nc(Nc4cccc(C#N)c4)n3)CC2)cc1 | 950 |
| O=C(Nc1ccc([N+](=O)[O-])cc1)Nc1cc(OCC(F)(F)F)cc(OCC(F)(F)F)c1 | 470 |
| Cc1cccc2[nH]c(-c3ccc(-c4ccc(CN5CCN(c6ccncc6)CC5)cc4)s3)nc12 | 110 |
| COc1cc(NCC(O)CNc2cc(Cl)nc3ccccc23)nc2ccccc12 (configuration not stated) | 420 |
| CCN1CCC(N(Cc2ccc(-c3ccc(C(F)(F)F)cc3)cc2)C(=O)Cn2c(SCc3ccc(F)cc3)nc(=O)c3c2CCC3)CC1 | 990 |
| Cc1cc(N[C@@H](Cc2ccccc2)C(=O)NCCOc2ccccc2)nc(NCCc2ccc(F)cc2)n1 | 600 |
| CN(C)CCCn1c(C(=O)OC(c2ccccc2)c2ccccc2)cc2cc(OCc3ccccc3)ccc21 | 200 |
| N#Cc1ccc(CN2CCC(Oc3ccc(NC(=O)c4ccco4)cc3Cl)C2)cc1 (configuration not stated) | 330 |
| CCC[C@@H]([C@@H](CC(C)C)C(=O)N[C@@H](CCCCNC(=O)c1ccccn1)C(=O)Nc1nccs1)N(O)C=O | 50 |
| COc1cc2c(c(OC)c1[N+](=O)[O-])C=CC1(O2)N(C)c2ccc([N+](=O)[O-])cc2C1(C)C (configuration not stated) | 910 |

Reference: PubChem BioAssay AID2305 (GlaxoSmithKline (GSK), 2010)
